# Measurements as given in publication PMC7598997, “Synthesis and evaluation of anticancer activities of 2- or 4-substituted 3-(N-benzyltriazolylmethyl)-13α-oestrone derivatives” (Journal of Enzyme Inhibition and Medicinal Chemistry, 2020).
# Read-outs that look alike come from different tables or passages of the source.
# Tests used:
# A2780 cells = assay: MTT antiproliferative assay, A2780; format: cell-based, human; conditions: for IC50: read-out: calculated IC50; for inhibition at 10 µM / inhibition at 30 µM: read-out: Inhibition (%) ± SEM
# Method: (§1) The antiproliferative properties of the newly synthesised triazoles (11a,b–15a,b) were determined on a panel of human adherent cancer cell lines of gynaecological origin. MCF-7 and MDA-MB-231 were isolated from breast cancers differing in biochemical background, while A2780 cells were isolated from ovarian cancer. The cancer selectivity of compound 12a was tested on the non-cancerous mouse embryo fibroblast cell line NIH/3T3. All cell lines were purchased from European Collection of Cell Cultures (ECCAC, Salisbury, UK). Cells were cultivated in minimal essential medium supplemented with 10% foetal bovine serum, 1% non-essential amino acids and an antibiotic–antimycotic mixture. All media and supplements were obtained from Lonza Group Ltd., Basel, Switzerland. Near-confluent cancer cells were seeded onto a 96-well microplate (5000 cells/well) and, after overnight standing, 200 µL new medium, containing the tested compounds at 10 and 30 µM, was added. After incubation for 72 h at 37 °C in humidified air containing 5% CO2, the living cells were assayed by the addition of 20 µL of 5 mg/ml 3-(4,5-dimethylthiazol-2-yl)-2,5-diphenyltetrazolium bromide (MTT) solution. MTT was converted by intact mitochondrial reductase and precipitated as purple crystals during a 4-h contact period. The medium was next removed and the precipitated formazan crystals were dissolved in 100 µL of DMSO during a 60-min period of shaking at 37 ^оC.
# (§2) Finally, the reduced MTT was assayed at 545 nm, using a microplate reader utilising wells with untreated cells serving as control. […] All in vitro experiments were carried out on two microplates with at least five parallel wells. Stock solutions of the tested substances (10 mM) were prepared in DMSO. […] Cisplatin (Ebewe Pharma GmbH, Unterach, Austria) was used as positive control.
# MCF-7 cells = assay: MTT antiproliferative assay, MCF-7; format: cell-based, human; conditions: for IC50: read-out: calculated IC50; for inhibition at 10 µM / inhibition at 30 µM: read-out: Inhibition (%) ± SEM
# Method: as §1, §2
# MDA-MB-231 cells = assay: MTT antiproliferative assay, MDA-MB-231; format: cell-based, human; conditions: for IC50: read-out: calculated IC50; for inhibition at 10 µM / inhibition at 30 µM: read-out: Inhibition (%) ± SEM
# Method: as §1, §2
# tubulin = assay: cell-free in vitro tubulin polymerisation assay; format: biochemical; conditions: 10 µM paclitaxel, positive control, vs untreated control
# Method: The effect of brominated triazole (12a) on tubulin polymerisation was tested with the HTS-Tubulin Polymerisation Assay Biochem Kit (Bio-Kasztel Ltd., Budapest, Hungary) according to the manufacturer’s recommendations. Briefly, 10 µl of a 0.125 or 0.25 mM solution of the test compound (12a) was placed on a prewarmed (37 °C), UV-transparent microplate. About 10 µl 10 µM paclitaxel and 10 µl General Tubulin Buffer were used as positive and negative control, respectively. 100 µl 3.0 mg/ml tubulin in 80 mM PIPES pH 6.9, 2 mM MgCl2, 0.5 mM EGTA, 1 mM GTP was added to each sample, and the microplate was immediately placed into a prewarmed (37 °C) UV-spectrophotometer (SpectoStarNano, BMG Labtech, Ortenberg, Germany) to start the recording reaction. A 60-min kinetic measurement protocol was applied to determine the absorbance of the reaction solution per minute at 340 nm. For the evaluation of the experimental data, the maximum reaction rate (Vmax: Δabsorbance/min) was calculated. Moving averages of absorbances determined at three consecutive timepoints were calculated and the highest difference between two succeeding moving averages was taken as the Vmax of the tested compound in the tubulin polymerisation reaction. Each sample was prepared in two parallels and the measurements were repeated twice. For statistical evaluation, Vmax data were analysed by the one-way ANOVA test with the Newmann–Keuls post-test by using Prism 4.01 software (GraphPad Software, San Diego, CA).
# [1] = Homo sapiens, A2780, 10 µM, 72 h, MTT
# [2] = Homo sapiens, A2780, 30 µM, 72 h, MTT
# [3] = Homo sapiens, MCF7, MCF-7, 10 µM, 72 h, MTT
# [4] = Homo sapiens, MCF7, MCF-7, 30 µM, 72 h, MTT
# [5] = Homo sapiens, MDA-MB-231, 10 µM, 72 h, MTT
# [6] = Homo sapiens, MDA-MB-231, 30 µM, 72 h, MTT
SMILES,"inhibition at 10 µM (A2780 cells; Homo sapiens, A2780, 72 h) [%]","inhibition at 30 µM (A2780 cells; Homo sapiens, A2780, 72 h) [%]","IC50 (A2780 cells; Homo sapiens, A2780, 72 h) [µM]",melting point [°C],"inhibition at 10 µM (MCF-7 cells; Homo sapiens, MCF7, 72 h) [%]","inhibition at 30 µM (MCF-7 cells; Homo sapiens, MCF7, 72 h) [%]","inhibition at 10 µM (MDA-MB-231 cells; Homo sapiens, MDA-MB-231, 72 h) [%]","inhibition at 30 µM (MDA-MB-231 cells; Homo sapiens, MDA-MB-231, 72 h) [%]","IC50 (MCF-7 cells; Homo sapiens, MCF7, 72 h) [µM]","IC50 (MDA-MB-231 cells; Homo sapiens, MDA-MB-231, 72 h) [µM]",other results
"N.N.[Cl][Pt][Cl] [Cisplatin, reference compound]",,,,,,,,,,,"Inhibition (%) ± SEM (A2780 cells; A2780, 10 µM, 72 h, MTT): 83.57 ± 1.21%; Inhibition (%) ± SEM (A2780 cells; A2780, 30 µM, 72 h, MTT): 95.02 ± 0.28%; IC50 (A2780 cells; A2780, 72 h, MTT): 1.3 µM; Inhibition (%) ± SEM (MCF-7 cells; MCF-7, 10 µM, 72 h, MTT): 53.03 ± 2.29%; Inhibition (%) ± SEM (MCF-7 cells; MCF-7, 30 µM, 72 h, MTT): 86.90 ± 1.24%; IC50 (MCF-7 cells; MCF-7, 72 h, MTT): 5.78 µM; Inhibition (%) ± SEM (MDA-MB-231 cells; MDA-MB-231, 10 µM, 72 h, MTT): 67.51 ± 1.01%; Inhibition (%) ± SEM (MDA-MB-231 cells; MDA-MB-231, 30 µM, 72 h, MTT): 87.75 ± 1.10%; IC50 (MDA-MB-231 cells; MDA-MB-231, 72 h, MTT): 3.7 µM"
"C[C@@]12CC[C@@H]3c4cc(Br)c(OCc5cn(Cc6ccccc6)nn5)cc4CC[C@H]3[C@@H]1CCC2=O [Compound 11a, 3-[{1-benzyl-1H-1,2,3-triazol-4-yl}methoxy]-2-bromo-13α-estra-1,3,5(10)-trien-17-one]",,,,,,,,,,,"inhibition at 10 µM (A2780 cells; [1]): 44.87 ± 0.09%; inhibition at 30 µM (A2780 cells; [2]): 52 ± 0.8%; IC50 (A2780 cells; Homo sapiens, A2780, 72 h, MTT): 21.5 µM; inhibition at 10 µM (MCF-7 cells; [3]): 29.1 ± 1.42%; inhibition at 30 µM (MCF-7 cells; [4]): 36.5 ± 1.22%; inhibition at 10 µM (MDA-MB-231 cells; [5]): 47.5 ± 1.21%; inhibition at 30 µM (MDA-MB-231 cells; [6]): 38.2 ± 2.78%"
"CC(C)(C)c1ccc(Cn2cc(COc3cc4c(cc3Br)[C@H]3CC[C@@]5(C)C(=O)CC[C@H]5[C@@H]3CC4)nn2)cc1 [Compound 11b, 2-bromo-3-[{1–(4-tert-butylbenzyl)-1H-1,2,3-triazol-4-yl}methoxy]-13α-estra-1,3,5(10)-trien-17-one]",,,,,,,,,,,inhibition at 10 µM (A2780 cells; [1]): 30.2 ± 2.35%; inhibition at 30 µM (A2780 cells; [2]): 33.9 ± 2.7%; inhibition at 10 µM (MCF-7 cells; [3]): < 20%; inhibition at 30 µM (MCF-7 cells; [4]): < 20%; inhibition at 10 µM (MDA-MB-231 cells; [5]): 24.4 ± 2.2%; inhibition at 30 µM (MDA-MB-231 cells; [6]): 23.9 ± 1.07%
"CC(C)(C)c1ccc(Cn2cc(COc3ccc4c(c3Br)CC[C@@H]3[C@@H]4CC[C@@]4(C)C(=O)CC[C@@H]34)nn2)cc1 [Compound 12b, 4-bromo-3-[{1–(4-tert-butylbenzyl)-1H-1,2,3-triazol-4-yl}methoxy]-13α-estra-1,3,5(10)-trien-17-one]",,,,,,,,,,,"inhibition at 10 µM (A2780 cells; [1]): 46.9 ± 1.75%; inhibition at 30 µM (A2780 cells; [2]): 54.7 ± 0.7%; IC50 (A2780 cells; Homo sapiens, A2780, 72 h, MTT): 18.3 µM; inhibition at 10 µM (MCF-7 cells; [3]): 23.5 ± 1.03%; inhibition at 30 µM (MCF-7 cells; [4]): 29.2 ± 2.94%; inhibition at 10 µM (MDA-MB-231 cells; [5]): < 20%; inhibition at 30 µM (MDA-MB-231 cells; [6]): < 20%"
"CCOP(=O)(OCC)c1cc2c(cc1OCc1cn(Cc3ccccc3)nn1)CC[C@@H]1[C@@H]2CC[C@@]2(C)C(=O)CC[C@@H]12 [Compound 13a, (3-[{1-benzyl-1H-1,2,3-triazol-4-yl}methoxy]-13α-estra-1,3,5(10)-trien-17-on-2-yl)-diethylphosphonate]",29.5 ± 1.86,90.85 ± 0.4,13.5,75 to 80,< 20,43.5 ± 2.63,< 20,36 ± 3.17,,,
"CCOP(=O)(OCC)c1cc2c(cc1OCc1cn(Cc3ccc(C(C)(C)C)cc3)nn1)CC[C@@H]1[C@@H]2CC[C@@]2(C)C(=O)CC[C@@H]12 [Compound 13b, (3-[{1–(4-tert-butylbenzyl)-1H-1,2,3-triazol-4-yl}methoxy]-13α-estra-1,3,5(10)-trien-17-on-2-yl)-diethylphosphonate]",95.61 ± 0.59,99.73 ± 0.21,2.95,,74 ± 1.88,95.52 ± 0.23,57 ± 2.58,98.93 ± 0.2,6.59,9.51,
"C[C@@]12CC[C@@H]3c4cc(P(=O)(c5ccccc5)c5ccccc5)c(OCc5cn(Cc6ccccc6)nn5)cc4CC[C@H]3[C@@H]1CCC2=O [Compound 14a, (3-[{1-benzyl-1H-1,2,3-triazol-4-yl}methoxy]-13α-estra-1,3,5(10)-trien-17-on-2-yl)diphenylphosphine oxide]",96 ± 1.28,98.06 ± 0.89,4.87,117 to 120,66.9 ± 1.46,92.5 ± 1.08,82 ± 2.49,98.52 ± 0.1,8.38,7.13,
"CC(C)(C)c1ccc(Cn2cc(COc3cc4c(cc3P(=O)(c3ccccc3)c3ccccc3)[C@H]3CC[C@@]5(C)C(=O)CC[C@H]5[C@@H]3CC4)nn2)cc1 [Compound 14b, (3-[{1–(4-tert-butylbenzyl)-1H-1,2,3-triazol-4-yl}methoxy]-13α-estra-1,3,5(10)-trien-17-on-2-yl)diphenylphosphine oxide]",85.52 ± 0.64,95.82 ± 0.12,5.07,205 to 208,77.87 ± 0.66,90.69 ± 0.18,46.6 ± 1.21,71.3 ± 1.23,7.16,13.6,
"CCOP(=O)(OCC)c1c(OCc2cn(Cc3ccccc3)nn2)ccc2c1CC[C@@H]1[C@@H]2CC[C@@]2(C)C(=O)CC[C@@H]12 [Compound 15a, (3-[{1-benzyl-1H-1,2,3-triazol-4-yl}methoxy]-13α-estra-1,3,5(10)-trien-17-on-4-yl)-diethylphosphonate]",79.9 ± 1.08,99.5 ± 0.03,5.91,43 to 45,42.4 ± 2.94,91 ± 1.49,25.7 ± 1.76,96.87 ± 0.28,11.4,13.2,
"CCOP(=O)(OCC)c1c(OCc2cn(Cc3ccc(C(C)(C)C)cc3)nn2)ccc2c1CC[C@@H]1[C@@H]2CC[C@@]2(C)C(=O)CC[C@@H]12 [Compound 15b, (3-[{1–(4-tert-butylbenzyl)-1H-1,2,3-triazol-4-yl}methoxy]-13α-estra-1,3,5(10)-trien-17-on-4-yl)-diethylphosphonate]",46.2 ± 1.27,92.05 ± 0.86,9.96,54 to 59,30.1 ± 1.53,77.5 ± 1.56,< 20,34.8 ± 2.2,,,
"CC(=O)O[C@H]1C(=O)[C@@]2(C)[C@H]([C@H](OC(=O)c3ccccc3)[C@]3(O)C[C@H](OC(=O)[C@H](O)[C@@H](NC(=O)c4ccccc4)c4ccccc4)C(C)=C1C3(C)C)[C@]1(OC(C)=O)CO[C@@H]1C[C@@H]2O [Paclitaxel, reference compound]",,,,,,,,,,,increase in Vmax (tubulin): threefold increase in Vmax
